ChEMBL document CHEMBL3217650, “Discovery of novel selective Sigma-1 ligands as cognitive enhancers” (Medchemcomm, 2011)
In brackets after ≈: the same amount, converted by molar mass. Activity calls are given as the source filed them. The rule behind the calls is not given here.

Tests used:
[1] = Octanol-water distribution coefficient, log D of the compound at pH 7.4; assay type: physicochemical
[2] = Dissociation constant, pKa of the compound; assay type: physicochemical
[3] = target: Sigma non-opioid intracellular receptor 1 (Homo sapiens, UniProt Q99720); test: Displacement of [3H]-pentazocine from human recombinant sigma-1 receptor expressed in CHO cells after 180 mins by beta counting analysis; assay type: cell-based
Sigma non-opioid intracellular receptor 1, sequence (Q99720 whole entry): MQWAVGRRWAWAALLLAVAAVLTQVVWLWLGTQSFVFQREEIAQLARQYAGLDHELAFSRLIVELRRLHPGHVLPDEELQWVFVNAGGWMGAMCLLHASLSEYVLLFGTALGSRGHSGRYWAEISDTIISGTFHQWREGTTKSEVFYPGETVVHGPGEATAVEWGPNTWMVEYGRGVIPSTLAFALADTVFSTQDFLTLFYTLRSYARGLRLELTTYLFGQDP

[4] = Intrinsic clearance in rat liver microsomes measured per mg of protein; assay type: ADME; conditions: read-out: CLH
[5] = target: 5-hydroxytryptamine receptor 2A (Homo sapiens) (UniProt P28223); test: Binding affinity to 5HT-2a receptor (unknown origin) at 10 uM by displacement assay relative to control
5-hydroxytryptamine receptor 2A (Homo sapiens), sequence (P28223 whole entry): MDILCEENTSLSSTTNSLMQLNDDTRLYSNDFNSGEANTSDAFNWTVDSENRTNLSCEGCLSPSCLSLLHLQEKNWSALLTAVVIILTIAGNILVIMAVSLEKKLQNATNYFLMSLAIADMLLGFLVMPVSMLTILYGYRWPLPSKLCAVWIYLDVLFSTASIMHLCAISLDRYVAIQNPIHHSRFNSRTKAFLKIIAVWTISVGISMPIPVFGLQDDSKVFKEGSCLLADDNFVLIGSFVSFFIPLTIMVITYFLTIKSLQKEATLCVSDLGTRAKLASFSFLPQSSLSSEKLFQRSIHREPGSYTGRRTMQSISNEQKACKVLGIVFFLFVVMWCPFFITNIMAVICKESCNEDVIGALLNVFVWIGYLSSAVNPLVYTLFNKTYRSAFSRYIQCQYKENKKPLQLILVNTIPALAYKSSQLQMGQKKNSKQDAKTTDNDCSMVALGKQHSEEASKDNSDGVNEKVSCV

[6] = target: Histamine H1 receptor (Homo sapiens) (UniProt P35367); test: Binding affinity to histamine H1 receptor (unknown origin) at 10 uM by displacement assay relative to control
Histamine H1 receptor (Homo sapiens), sequence (P35367 whole entry): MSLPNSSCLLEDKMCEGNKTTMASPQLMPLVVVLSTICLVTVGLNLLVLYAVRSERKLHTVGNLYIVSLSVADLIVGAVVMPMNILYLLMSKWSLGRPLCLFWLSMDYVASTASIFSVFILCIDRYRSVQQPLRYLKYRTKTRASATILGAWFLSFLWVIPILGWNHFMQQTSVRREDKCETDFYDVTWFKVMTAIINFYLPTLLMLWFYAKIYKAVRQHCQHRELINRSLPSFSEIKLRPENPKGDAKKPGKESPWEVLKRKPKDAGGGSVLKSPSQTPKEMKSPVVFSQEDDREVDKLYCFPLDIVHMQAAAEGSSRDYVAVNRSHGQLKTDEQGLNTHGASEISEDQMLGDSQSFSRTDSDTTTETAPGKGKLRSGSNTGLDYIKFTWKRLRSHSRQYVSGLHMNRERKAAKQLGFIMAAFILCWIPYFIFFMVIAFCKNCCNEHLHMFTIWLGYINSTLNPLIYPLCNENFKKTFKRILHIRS

Homo sapiens [7] = organism: Homo sapiens; test: Binding affinity to […] channel (unknown origin) at 10 uM by displacement assay relative to control
[8] = target: T1, Alpha-2C adrenergic receptor (Homo sapiens) (UniProt P18825); test: Binding affinity to adrenergic alpha-2c receptor (unknown origin) at 10 uM by displacement assay relative to control
T1 sequence (whole entry): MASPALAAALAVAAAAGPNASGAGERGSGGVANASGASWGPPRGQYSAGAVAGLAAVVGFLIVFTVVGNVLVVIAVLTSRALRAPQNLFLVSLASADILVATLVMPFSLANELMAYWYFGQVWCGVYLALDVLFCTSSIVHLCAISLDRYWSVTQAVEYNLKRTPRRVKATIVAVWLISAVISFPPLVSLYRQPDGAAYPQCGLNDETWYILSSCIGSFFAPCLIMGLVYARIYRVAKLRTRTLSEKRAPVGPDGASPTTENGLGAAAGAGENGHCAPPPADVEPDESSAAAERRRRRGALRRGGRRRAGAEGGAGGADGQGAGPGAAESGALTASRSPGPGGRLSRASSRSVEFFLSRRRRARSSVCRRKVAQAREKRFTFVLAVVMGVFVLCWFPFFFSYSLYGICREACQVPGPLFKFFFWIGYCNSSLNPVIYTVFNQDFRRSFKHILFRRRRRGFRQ

Homo sapiens [9] = organism: Homo sapiens; test: Binding affinity to Ca2+ channel (unknown origin) at 10 uM by displacement assay relative to control
[10] = target: Adrenergic receptor alpha-1 (Homo sapiens) (UniProt P35348+P25100+P35368); test: Binding affinity to adrenergic alpha-1 receptor (unknown origin) at 10 uM by displacement assay relative to control; assay type: protein assay
[11] = target: Kappa-type opioid receptor (Homo sapiens) (UniProt P41145); test: Binding affinity to kappa opioid receptor (unknown origin) at 10 uM by displacement assay relative to control
Kappa-type opioid receptor (Homo sapiens), sequence (P41145 whole entry): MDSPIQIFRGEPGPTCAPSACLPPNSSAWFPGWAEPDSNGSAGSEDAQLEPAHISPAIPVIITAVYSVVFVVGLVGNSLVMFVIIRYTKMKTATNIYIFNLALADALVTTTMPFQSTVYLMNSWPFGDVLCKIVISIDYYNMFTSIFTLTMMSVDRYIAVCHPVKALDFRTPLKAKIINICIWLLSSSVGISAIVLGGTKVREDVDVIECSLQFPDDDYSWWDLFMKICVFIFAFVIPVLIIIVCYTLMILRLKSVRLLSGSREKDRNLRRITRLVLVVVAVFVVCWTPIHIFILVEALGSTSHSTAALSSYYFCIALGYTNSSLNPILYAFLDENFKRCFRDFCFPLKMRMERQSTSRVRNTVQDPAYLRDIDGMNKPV

[12] = target: 5-hydroxytryptamine receptor 6 (Homo sapiens) (UniProt P50406); test: Binding affinity to 5HT-6 receptor (unknown origin) at 10 uM by displacement assay relative to control
5-hydroxytryptamine receptor 6 (Homo sapiens), sequence (P50406 whole entry): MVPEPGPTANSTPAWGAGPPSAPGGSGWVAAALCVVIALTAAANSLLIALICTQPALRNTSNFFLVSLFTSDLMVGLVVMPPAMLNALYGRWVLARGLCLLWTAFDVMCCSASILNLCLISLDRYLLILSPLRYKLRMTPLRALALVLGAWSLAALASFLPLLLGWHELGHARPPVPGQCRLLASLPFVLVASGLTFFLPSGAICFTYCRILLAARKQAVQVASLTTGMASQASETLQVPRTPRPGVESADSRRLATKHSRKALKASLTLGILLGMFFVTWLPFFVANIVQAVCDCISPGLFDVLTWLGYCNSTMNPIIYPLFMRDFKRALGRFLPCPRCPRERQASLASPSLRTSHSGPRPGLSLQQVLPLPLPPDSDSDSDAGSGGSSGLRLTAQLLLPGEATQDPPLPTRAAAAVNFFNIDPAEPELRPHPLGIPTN

[13] = target: Sodium-dependent dopamine transporter (Homo sapiens) (UniProt Q01959); test: Binding affinity to DA transporter (unknown origin) at 10 uM by displacement assay relative to control
Sodium-dependent dopamine transporter (Homo sapiens), sequence (Q01959 whole entry): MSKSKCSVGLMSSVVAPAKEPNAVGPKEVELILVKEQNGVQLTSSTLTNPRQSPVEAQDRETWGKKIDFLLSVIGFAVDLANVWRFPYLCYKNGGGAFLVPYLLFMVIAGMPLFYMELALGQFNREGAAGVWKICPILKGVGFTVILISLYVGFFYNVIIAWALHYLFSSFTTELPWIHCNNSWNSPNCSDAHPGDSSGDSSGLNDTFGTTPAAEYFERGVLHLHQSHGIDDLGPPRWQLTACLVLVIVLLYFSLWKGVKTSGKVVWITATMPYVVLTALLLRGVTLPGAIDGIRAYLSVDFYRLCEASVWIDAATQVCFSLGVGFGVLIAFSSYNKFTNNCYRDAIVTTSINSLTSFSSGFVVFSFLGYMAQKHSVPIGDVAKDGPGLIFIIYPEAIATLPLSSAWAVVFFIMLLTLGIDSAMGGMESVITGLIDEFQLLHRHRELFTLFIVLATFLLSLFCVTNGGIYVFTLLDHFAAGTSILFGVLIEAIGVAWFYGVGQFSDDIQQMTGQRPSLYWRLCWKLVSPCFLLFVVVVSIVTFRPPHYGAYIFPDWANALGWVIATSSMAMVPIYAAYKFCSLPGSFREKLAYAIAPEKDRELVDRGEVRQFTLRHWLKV

[14] = target: 5-hydroxytryptamine receptor 7 (Homo sapiens) (UniProt P34969); test: Binding affinity to 5HT-7 receptor (unknown origin) at 10 uM by displacement assay relative to control
[15] = target: Mu-type opioid receptor (Homo sapiens) (UniProt P35372); test: Binding affinity to mu opioid receptor (unknown origin) at 10 uM by displacement assay relative to control
Mu-type opioid receptor (Homo sapiens), sequence (P35372 whole entry): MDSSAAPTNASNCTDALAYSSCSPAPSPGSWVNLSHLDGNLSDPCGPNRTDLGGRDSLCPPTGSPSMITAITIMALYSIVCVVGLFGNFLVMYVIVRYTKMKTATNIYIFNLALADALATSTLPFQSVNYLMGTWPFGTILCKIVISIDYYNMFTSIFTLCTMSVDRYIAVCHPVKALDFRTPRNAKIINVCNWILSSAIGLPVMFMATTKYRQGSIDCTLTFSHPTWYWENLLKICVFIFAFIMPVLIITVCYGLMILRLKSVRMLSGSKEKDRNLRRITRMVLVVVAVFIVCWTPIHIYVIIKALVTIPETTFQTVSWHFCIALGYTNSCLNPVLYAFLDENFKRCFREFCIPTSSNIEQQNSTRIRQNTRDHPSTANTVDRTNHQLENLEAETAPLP

[16] = target: D(4) dopamine receptor (Homo sapiens) (UniProt P21917); test: Binding affinity to dopamine D4 receptor (unknown origin) at 10 uM by displacement assay relative to control
D(4) dopamine receptor (Homo sapiens), sequence (P21917 whole entry): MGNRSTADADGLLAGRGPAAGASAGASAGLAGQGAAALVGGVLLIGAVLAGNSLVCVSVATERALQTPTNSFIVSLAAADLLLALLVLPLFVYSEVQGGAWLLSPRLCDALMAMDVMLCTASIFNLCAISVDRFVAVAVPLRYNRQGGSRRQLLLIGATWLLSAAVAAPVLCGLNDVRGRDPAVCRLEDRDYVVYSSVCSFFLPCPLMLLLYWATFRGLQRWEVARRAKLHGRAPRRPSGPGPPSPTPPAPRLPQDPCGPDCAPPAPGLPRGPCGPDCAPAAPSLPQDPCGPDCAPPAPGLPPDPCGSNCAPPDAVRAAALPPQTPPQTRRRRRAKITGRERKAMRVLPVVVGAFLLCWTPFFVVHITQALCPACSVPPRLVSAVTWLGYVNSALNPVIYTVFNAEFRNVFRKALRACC

[17] = target: Sodium-dependent noradrenaline transporter (Homo sapiens) (UniProt P23975); test: Binding affinity to NE transporter (unknown origin) at 10 uM by displacement assay relative to control
Sodium-dependent noradrenaline transporter (Homo sapiens), sequence (P23975 whole entry): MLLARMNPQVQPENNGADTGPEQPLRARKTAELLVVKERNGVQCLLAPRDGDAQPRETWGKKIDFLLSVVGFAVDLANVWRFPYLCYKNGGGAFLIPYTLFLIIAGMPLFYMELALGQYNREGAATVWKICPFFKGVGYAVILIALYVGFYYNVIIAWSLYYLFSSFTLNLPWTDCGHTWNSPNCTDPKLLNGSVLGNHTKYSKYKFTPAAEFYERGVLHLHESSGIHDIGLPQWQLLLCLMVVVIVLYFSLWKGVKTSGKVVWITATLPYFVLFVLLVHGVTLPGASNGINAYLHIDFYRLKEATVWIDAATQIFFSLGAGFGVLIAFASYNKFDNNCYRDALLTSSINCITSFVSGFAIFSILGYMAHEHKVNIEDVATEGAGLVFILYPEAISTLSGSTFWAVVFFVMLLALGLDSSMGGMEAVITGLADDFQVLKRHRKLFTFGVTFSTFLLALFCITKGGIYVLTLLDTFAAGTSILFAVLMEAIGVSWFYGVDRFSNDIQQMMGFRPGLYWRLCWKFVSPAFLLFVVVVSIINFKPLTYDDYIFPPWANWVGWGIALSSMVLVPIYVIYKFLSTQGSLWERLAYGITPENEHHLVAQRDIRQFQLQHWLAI

[18] = target: Alpha-2B adrenergic receptor (Homo sapiens) (UniProt P18089); test: Binding affinity to adrenergic alpha-2b receptor (unknown origin) at 10 uM by displacement assay relative to control
Alpha-2B adrenergic receptor (Homo sapiens), sequence (P18089 whole entry): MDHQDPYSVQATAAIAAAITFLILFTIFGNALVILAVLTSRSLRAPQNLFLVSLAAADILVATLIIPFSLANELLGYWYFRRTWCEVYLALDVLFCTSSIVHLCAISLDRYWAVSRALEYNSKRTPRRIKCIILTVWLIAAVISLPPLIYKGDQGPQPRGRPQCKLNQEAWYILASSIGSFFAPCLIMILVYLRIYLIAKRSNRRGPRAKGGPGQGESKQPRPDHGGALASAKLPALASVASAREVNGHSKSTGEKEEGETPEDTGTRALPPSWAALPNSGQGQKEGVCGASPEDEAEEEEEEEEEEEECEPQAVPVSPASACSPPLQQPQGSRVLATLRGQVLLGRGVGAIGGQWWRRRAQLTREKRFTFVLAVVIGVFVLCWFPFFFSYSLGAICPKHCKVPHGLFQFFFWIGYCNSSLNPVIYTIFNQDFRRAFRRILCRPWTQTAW

Rattus norvegicus [19] = organism: Rattus norvegicus; test: Displacement of [3H]1,3-di-O-tolylguanidine from sigma-2 receptor in rat cerebral cortex; assay type: tissue-based; conditions: concentration not given here
[20] = Intrinsic clearance in human liver microsomes measured per mg of protein; assay type: ADME; conditions: read-out: CLH
[21] = target: Histamine H3 receptor (Homo sapiens) (UniProt Q9Y5N1); test: Binding affinity to histamine H3 receptor (unknown origin) at 10 uM by displacement assay relative to control
Histamine H3 receptor (Homo sapiens), sequence (Q9Y5N1 whole entry): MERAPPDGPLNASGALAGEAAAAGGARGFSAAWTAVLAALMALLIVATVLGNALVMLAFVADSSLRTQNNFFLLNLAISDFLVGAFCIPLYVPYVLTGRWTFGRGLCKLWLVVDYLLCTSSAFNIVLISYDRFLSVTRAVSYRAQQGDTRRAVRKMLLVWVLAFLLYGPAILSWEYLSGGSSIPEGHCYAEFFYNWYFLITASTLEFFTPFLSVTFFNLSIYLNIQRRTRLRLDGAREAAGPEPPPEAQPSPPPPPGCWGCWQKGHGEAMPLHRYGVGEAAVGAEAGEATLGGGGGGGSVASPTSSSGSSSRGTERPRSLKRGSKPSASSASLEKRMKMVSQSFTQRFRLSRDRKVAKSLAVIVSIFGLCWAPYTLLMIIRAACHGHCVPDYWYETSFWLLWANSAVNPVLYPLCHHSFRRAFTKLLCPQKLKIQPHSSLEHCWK

Rattus norvegicus [22] = organism: Rattus norvegicus; test: Displacement of [3H]1,3-di-O-tolylguanidine from sigma-2 receptor in rat cerebral cortex at 10 uM relative to control; assay type: tissue-based
[23] = Apparent permeability across apical to basolateral side in human Caco2 cells at 20 uM measured up to 3 hrs; assay type: ADME, cell-based; conditions: Caco-2
[24] = Intrinsic clearance in mouse liver microsomes measured per mg of protein; assay type: ADME; conditions: read-out: CLH
Mus musculus [25] = test: Antiamnesic activity in C57BL6/J mouse assessed as reduction of scopolamine-induced memory deficit at 1 to 23 mg/kg, ip administered 40 mins prior to acquisition trial by two-trial object recognition test; assay type: functional, organism-based
[26] = Solubility of the compound at pH 7.4; assay type: physicochemical; conditions: buffer
[27] = Ratio of drug level in brain to plasma in C57BL6/J mouse at 1 mg/kg, ip measured at 40 mins; assay type: ADME, organism-based; design: dose 1 mg/kg, route intraperitoneal; conditions: brain and plasma, read-out: BPR
[28] = target: D(2) dopamine receptor (Homo sapiens) (UniProt P14416); test: Binding affinity to dopamine D2 receptor (unknown origin) at 10 uM by displacement assay relative to control
[29] = target: Sodium-dependent serotonin transporter (Homo sapiens) (UniProt P31645); test: Binding affinity to 5HT transporter (unknown origin) at 10 uM by displacement assay relative to control
[30] = target: D(3) dopamine receptor (Homo sapiens) (UniProt P35462); test: Binding affinity to dopamine D3 receptor (unknown origin) at 10 uM by displacement assay relative to control
[31] = target: 5-hydroxytryptamine receptor 1A (Homo sapiens) (UniProt P08908); test: Binding affinity to 5-HT1a receptor (unknown origin) at 10 uM by displacement assay relative to control
[32] = target: Muscarinic acetylcholine receptor (Rattus norvegicus) (UniProt P08482+P08483+P08485+P08911+P10980); test: Displacement of [3H]-QNB from muscarinic receptor in rat cerebral cortex at 10 uM relative to control; assay type: tissue-based
Mus musculus [33] = test: Antiamnesic activity in C57BL6/J mouse assessed as reduction of scopolamine-induced memory deficit at 0.03 to 1 mg/kg, ip administered 40 mins prior to acquisition trial by two-trial object recognition test; assay type: functional, organism-based
[34] = target: Acetylcholinesterase (Homo sapiens) (UniProt P22303); test: Binding affinity to AChE (unknown origin) at 10 uM by displacement assay relative to control
[35] = target: Opioid receptor (Rattus norvegicus) (UniProt P33533+P34975+P33535); test: Displacement of [3H]-naloxone from opioid receptor in rat cerebral cortex at 10 uM relative to control; assay type: tissue-based

O=C(NC1CCC(N2CCCCC2)CC1)[C@H]1C[C@@H]1c1ccccc1 (mixture of isomers)
logD ([1]; read-out: logD): 0.9
pKa [2]: 9.6
Ki [3]: 1260 nM

O=C(NCCCNC1CCCCC1)[C@H]1C[C@@H]1c1ccccc1 (racemic) [listing 1 of 2 here]
logD [1]: 1.3
pKa [2]: 10.1
Ki [3]: 200 nM

O=C([C@H]1C[C@@H]1c1ccccc1)N1CCC(N2CCCC2)CC1 (racemic)
logD ([1]; read-out: logD): 0.7
microsomal CLint [4]: 25 µL/min/mg
pKa [2]: 9.3
Ki [3]: 200 nM

O=C(NCCN1CCN(Cc2ccc(Cl)c(Cl)c2)CC1)[C@H]1C[C@@H]1c1ccccc1 (racemic)
logD ([1]; read-out: logD): > 4
microsomal CLint [4]: 200 µL/min/mg
inhibition [5]: > 90%
inhibition [6]: 50%
inhibition (Homo sapiens [7]): 50%
Ki [3]: 10 nM

O=C(NCCCN1CCN(Cc2c(F)cccc2Cl)CC1)[C@H]1C[C@@H]1c1ccccc1 (racemic)
inhibition [8]: 50%
logD ([1]; read-out: logD): 3.5
microsomal CLint [4]: 305 µL/min/mg
inhibition (Homo sapiens [9]): > 90%
inhibition [5]: > 90%
inhibition [6]: 50%
Ki [3]: 25.1 nM
inhibition [10]: 50%

O=C([C@H]1C[C@@H]1c1ccccc1)N1CCN(c2ccccc2)CC1 (racemic)
logD ([1]; read-out: logD): 3.8
pKa [2]: < 2.5
Ki [3]: 1260 nM

O=C(NCCCNC1CCCCC1)[C@H]1C[C@@H]1c1ccccc1 (stereo in doubt; (-)-1) [listing 1 of 2 here]
logD ([1]; read-out: logD): 1.1
Ki [3]: 158 nM

O=C(NCCN1CCN(Cc2ccccc2)CC1)[C@H]1C[C@@H]1c1ccccc1 (racemic)
logD ([1]; read-out: logD): 2.8
microsomal CLint [4]: 122 µL/min/mg
inhibition [11]: 50%
inhibition [12]: 50%
inhibition [13]: 50%
inhibition [14]: 50%
inhibition [15]: 50%
inhibition [16]: > 90%
inhibition [5]: 50%
Ki [3]: 15.8 nM
inhibition [17]: 50%

O=C(NCCCNC1CCCCC1)[C@H]1C[C@@H]1c1ccccc1 (stereo in doubt; (+)-1) [listing 1 of 2 here]
inhibition [8]: 50%
inhibition [18]: 50%
inhibition (Rattus norvegicus [19]): 6.6%
inhibition (Homo sapiens [9]): 50%
inhibition [5]: > 90%
inhibition (Homo sapiens [7]): 50%
inhibition [10]: 50%

O=C(NCCCNC1CCCCC1)[C@H]1C[C@@H]1c1ccccc1 (stereo in doubt; (+)-1) [listing 2 of 2 here]
microsomal CLint [4]: 147 µL/min/mg
Ki [3]: 158 nM

O=C([C@H]1C[C@@H]1c1ccccc1)N1CCC(N2CCCCC2)CC1 (racemic)
logD ([1]; read-out: logD): 1.1
microsomal CLint [20]: 56 µL/min/mg
microsomal CLint [4]: 32 µL/min/mg
inhibition [21]: 50%
inhibition (Rattus norvegicus [22]): 50%
pKa [2]: 9.3
Papp A→B at 3 h, 20 µM [23]: 16.6 ×10⁻⁶ cm/s
inhibition (Homo sapiens [9]): 50%
microsomal CLint [24]: 50 µL/min/mg
Activity (Mus musculus [25]): Active
solubility [26]: 1100 µg/mL (≈ 3.52 mM)
Ki [3]: 79.4 nM
Kp at 40 min [27]: 13.5

O=C(NCCN1CCN(C(=O)c2c(F)cccc2Cl)CC1)[C@H]1C[C@@H]1c1ccccc1 (racemic)
logD ([1]; read-out: logD): 2.3
microsomal CLint [4]: 81 µL/min/mg
inhibition [5]: > 90%
Ki [3]: 631 nM

O=C([C@H]1C[C@@H]1c1ccc(F)cc1)N1CCC(N2CCCCC2)CC1 (racemic)
inhibition (Rattus norvegicus [22]): 61%
Ki [3]: 100 nM

O=C(NCCN1CCN(Cc2c(F)cccc2Cl)CC1)[C@H]1C[C@@H]1c1ccccc1 (racemic)
logD ([1]; read-out: logD): 3.7
microsomal CLint [4]: 283 µL/min/mg
Ki [3]: 25.1 nM

COc1ccc(CCN2CCN(CCCc3ccccc3)CC2)cc1OC
inhibition [8]: 50%
inhibition [28]: 50%
inhibition [21]: 50%
inhibition (Rattus norvegicus [22]): 99%
inhibition [13]: 50%
inhibition [16]: 50%
inhibition [5]: 50%
inhibition [10]: > 90%
inhibition [29]: 50%
inhibition [30]: 50%
inhibition [17]: > 90%

O=C(NCCN1CCCC1)[C@H]1C[C@@H]1c1ccccc1 (racemic)
logD ([1]; read-out: logD): 0.9
pKa [2]: 9.2
inhibition [5]: > 90%
Ki [3]: 63.1 nM

O=C(NCCCNC1CCCCC1)[C@H]1C[C@@H]1c1ccccc1 (racemic) [listing 2 of 2 here]
inhibition (Homo sapiens [9]): > 90%
inhibition [5]: 50%
inhibition [10]: 50%

CC(C)N(CCNC(=O)[C@H]1C[C@@H]1c1ccccc1)C(C)C (racemic)
logD ([1]; read-out: logD): 1
microsomal CLint [4]: > 300 µL/min/mg
pKa [2]: 9.7
inhibition [5]: 50%
Ki [3]: 63.1 nM

O=C([C@H]1C[C@@H]1c1ccc(F)cc1)N1CCC(CNCC2CCCCC2)CC1 (racemic)
microsomal CLint [4]: 17 µL/min/mg
inhibition [31]: 50%
inhibition (Homo sapiens [7]): 50%
Ki [3]: 79.4 nM
inhibition [32]: 50%

C=CCN1CC[C@]2(C)c3cc(O)ccc3C[C@@H]1[C@@H]2C
microsomal CLint [4]: 313 µL/min/mg
inhibition [11]: > 90%
inhibition (Rattus norvegicus [22]): 29%
Papp A→B at 3 h, 20 µM [23]: 20.2 ×10⁻⁶ cm/s
microsomal CLint [24]: 17 µL/min/mg
inhibition [15]: 50%
Activity (Mus musculus [33]): Active
inhibition [34]: 50%
Ki [3]: 158 nM
Kp at 40 min [27]: 5.64

O=C(NCCCNC1CCCCC1)[C@H]1C[C@@H]1c1ccccc1 (stereo in doubt; (-)-1) [listing 2 of 2 here]
inhibition (Homo sapiens [7]): 50%

CCN(CC)CCNC(=O)[C@H]1C[C@@H]1c1ccccc1 (racemic)
logD ([1]; read-out: logD): 0.6
inhibition [35]: > 90%
pKa [2]: 8.9
inhibition [5]: 50%
Ki [3]: 126 nM

CN(C)CC(C)(C)CNC(=O)[C@H]1C[C@@H]1c1ccccc1 (racemic)
logD ([1]; read-out: logD): 0.8
pKa [2]: 8.9
Ki [3]: 398 nM
